According to ChEMBL document CHEMBL5550090, “Synthesis and biological evaluation of 1H-pyrrolo[3,2-g]isoquinolines” (Bioorg Med Chem, 2024):
pEC50, pIC50: −log10 of the molar value.

How the values were obtained:
U2OS [1] = test: Induction of cell cycle arrest in human U2OS cells assessed as proportion of cells at G1 phase at 0.5 uM incubated for 24 hrs by flow cytometry (reference value: 45%); assay type: functional
U2OS [2] = test: Induction of cell cycle arrest in human U2OS cells assessed as proportion of cells at S phase at 0.5 uM incubated for 24 hrs by flow cytometry (reference value: 39%); assay type: functional
U2OS [3] = test: Induction of cell cycle arrest in human U2OS cells assessed as proportion of cells at G2/M phase at 0.5 uM incubated for 24 hrs by flow cytometry (reference value: 16%); assay type: functional
[4] = target: T1, Serine/threonine-protein kinase haspin (Homo sapiens, UniProt Q8TF76); test: Inhibition of recombinant human Haspin kinase domain (470 to 798 residues) expressed in bacteria using histone H3 (1 to 21) peptide as substrate incubated for 30 mins in presence of ATP by ADP-Glo kinase assay
T1 sequence (Q8TF76 whole entry): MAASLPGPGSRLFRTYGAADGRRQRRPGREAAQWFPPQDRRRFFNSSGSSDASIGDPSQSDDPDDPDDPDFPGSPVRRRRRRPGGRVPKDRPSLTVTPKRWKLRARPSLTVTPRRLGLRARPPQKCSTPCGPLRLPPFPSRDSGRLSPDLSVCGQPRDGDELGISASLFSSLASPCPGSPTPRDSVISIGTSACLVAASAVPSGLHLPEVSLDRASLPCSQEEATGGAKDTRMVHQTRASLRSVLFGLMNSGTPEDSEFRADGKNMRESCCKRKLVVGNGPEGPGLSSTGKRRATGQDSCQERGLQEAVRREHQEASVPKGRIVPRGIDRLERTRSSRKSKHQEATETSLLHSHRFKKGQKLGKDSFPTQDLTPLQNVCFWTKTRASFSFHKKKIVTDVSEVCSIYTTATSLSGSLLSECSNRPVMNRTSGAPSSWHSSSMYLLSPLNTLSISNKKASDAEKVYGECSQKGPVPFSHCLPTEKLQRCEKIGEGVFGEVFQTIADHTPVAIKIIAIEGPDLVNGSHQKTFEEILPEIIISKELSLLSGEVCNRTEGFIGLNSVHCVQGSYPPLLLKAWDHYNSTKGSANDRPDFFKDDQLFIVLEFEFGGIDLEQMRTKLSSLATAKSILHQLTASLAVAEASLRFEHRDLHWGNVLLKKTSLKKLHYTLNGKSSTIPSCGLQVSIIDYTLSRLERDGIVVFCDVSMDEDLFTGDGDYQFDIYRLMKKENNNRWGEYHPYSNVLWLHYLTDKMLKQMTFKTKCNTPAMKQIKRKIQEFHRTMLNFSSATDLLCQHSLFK

[5] = target: Dual specificity protein kinase CLK1 (Mus musculus) (UniProt P22518); test: Inhibition of recombinant mouse CLK1 expressed in bacteria assessed as enzyme residual activity using GRSRSRSRSRSR as substrate at 10 uM incubated for 30 mins in presence of ATP by ADP-Glo kinase assay
Dual specificity protein kinase CLK1 (Mus musculus), sequence (P22518 whole entry, looked up): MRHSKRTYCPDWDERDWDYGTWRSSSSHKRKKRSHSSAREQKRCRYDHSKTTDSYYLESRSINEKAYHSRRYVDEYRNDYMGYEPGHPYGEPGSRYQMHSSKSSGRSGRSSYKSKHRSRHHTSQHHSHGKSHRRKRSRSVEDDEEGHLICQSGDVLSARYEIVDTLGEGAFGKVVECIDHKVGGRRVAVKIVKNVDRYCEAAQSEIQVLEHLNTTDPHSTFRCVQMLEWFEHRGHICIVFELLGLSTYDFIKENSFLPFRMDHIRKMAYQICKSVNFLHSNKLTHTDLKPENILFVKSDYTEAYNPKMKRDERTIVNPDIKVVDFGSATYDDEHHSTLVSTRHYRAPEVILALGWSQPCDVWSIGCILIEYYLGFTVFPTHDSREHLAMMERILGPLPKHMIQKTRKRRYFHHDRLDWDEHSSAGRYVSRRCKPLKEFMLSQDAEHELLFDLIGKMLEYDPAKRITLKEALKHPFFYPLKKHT

[6] = target: Dual specificity protein kinase CLK1 (Mus musculus) (UniProt P22518); test: Inhibition of recombinant mouse CLK1 expressed in bacteria assessed as enzyme residual activity using GRSRSRSRSRSR as substrate at 1 uM incubated for 30 mins in presence of ATP by ADP-Glo kinase assay
[7] = target: Dual specificity protein kinase CLK1 (Mus musculus, UniProt P22518); test: Inhibition of recombinant mouse CLK1 expressed in bacteria using GRSRSRSRSRSR as substrate incubated for 30 mins in presence of ATP by ADP-Glo kinase assay
Dual specificity protein kinase CLK1, sequence (P22518 whole entry, the tested form may be a part): as the sequence (P22518 whole entry, looked up) above

[8] = target: Dual specificity tyrosine-phosphorylation-regulated kinase 1A (Rattus norvegicus) (UniProt Q63470); test: Inhibition of recombinant rat DYRK1A kinase domain (1 to 499 residues) expressed in bacteria assessed as enzyme residual activity using KKISGRLSPIMTEQ as substrate at 10 uM incubated for 30 mins in presence of ATP by ADP-Glo kinase assay
[9] = target: Dual specificity tyrosine-phosphorylation-regulated kinase 1A (Rattus norvegicus) (UniProt Q63470); test: Inhibition of recombinant rat DYRK1A kinase domain (1 to 499 residues) expressed in bacteria assessed as enzyme residual activity using KKISGRLSPIMTEQ as substrate at 1 uM incubated for 30 mins in presence of ATP by ADP-Glo kinase assay
[10] = target: Dual specificity tyrosine-phosphorylation-regulated kinase 1A (Rattus norvegicus, UniProt Q63470); test: Inhibition of recombinant rat DYRK1A kinase domain (1 to 499 residues) expressed in bacteria using KKISGRLSPIMTEQ as substrate incubated for 30 mins in presence of ATP by ADP-Glo kinase assay
[11] = target: T2, CDK9/cyclin T1 (Homo sapiens) (UniProt O60563+P50750); test: Inhibition of human recombinant CDK9/cyclin T expressed in baculovirus-infected Sf9 cells assessed as enzyme residual activity using YSPTSPSYSPTSPSYSPTSPSKKKK as substrate at 10 uM incubated for 30 mins in presence of ATP by ADP-Glo kinase assay
[12] = target: T2, CDK9/cyclin T1 (Homo sapiens); test: Inhibition of human recombinant CDK9/cyclin T expressed in baculovirus-infected Sf9 cells assessed as enzyme residual activity using YSPTSPSYSPTSPSYSPTSPSKKKK as substrate at 1 uM incubated for 30 mins in presence of ATP by ADP-Glo kinase assay
[13] = target: Glycogen synthase kinase-3 beta (Homo sapiens) (UniProt P49841); test: Inhibition of human recombinant GSK-3 beta expressed in baculovirus-infected Sf9 cells assessed as enzyme residual activity using YRRAAVPPSPSLSRHSSPHQSpEDEEE as substrate at 10 uM incubated for 30 mins in presence of ATP by ADP-Glo kinase assay
Glycogen synthase kinase-3 beta (Homo sapiens), sequence (P49841 whole entry, looked up, canonical isoform): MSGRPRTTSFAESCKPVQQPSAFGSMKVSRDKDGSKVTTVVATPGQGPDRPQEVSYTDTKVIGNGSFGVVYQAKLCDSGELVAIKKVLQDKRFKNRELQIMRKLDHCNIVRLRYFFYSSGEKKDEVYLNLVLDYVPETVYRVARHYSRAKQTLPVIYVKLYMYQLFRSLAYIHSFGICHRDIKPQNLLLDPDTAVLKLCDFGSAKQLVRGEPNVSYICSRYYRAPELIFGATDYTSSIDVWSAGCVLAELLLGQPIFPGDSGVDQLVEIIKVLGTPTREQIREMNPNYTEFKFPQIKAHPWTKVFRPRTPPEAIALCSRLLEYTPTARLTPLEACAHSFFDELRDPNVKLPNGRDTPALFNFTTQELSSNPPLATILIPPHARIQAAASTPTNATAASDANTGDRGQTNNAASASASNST

[14] = target: Glycogen synthase kinase-3 beta (Homo sapiens) (UniProt P49841); test: Inhibition of human recombinant GSK-3 beta expressed in baculovirus-infected Sf9 cells assessed as enzyme residual activity using YRRAAVPPSPSLSRHSSPHQSpEDEEE as substrate at 1 uM incubated for 30 mins in presence of ATP by ADP-Glo kinase assay
[15] = target: Casein kinase I isoform epsilon (Homo sapiens) (UniProt P49674); test: Inhibition of human recombinant CK1 epsilon expressed in baculovirus-infected Sf9 cells assessed as enzyme residual activity using RRKHAAIGSpAYSITA as substrate at 10 uM incubated for 30 mins in presence of ATP by ADP-Glo kinase assay
Casein kinase I isoform epsilon (Homo sapiens), sequence (P49674 whole entry, looked up, canonical isoform): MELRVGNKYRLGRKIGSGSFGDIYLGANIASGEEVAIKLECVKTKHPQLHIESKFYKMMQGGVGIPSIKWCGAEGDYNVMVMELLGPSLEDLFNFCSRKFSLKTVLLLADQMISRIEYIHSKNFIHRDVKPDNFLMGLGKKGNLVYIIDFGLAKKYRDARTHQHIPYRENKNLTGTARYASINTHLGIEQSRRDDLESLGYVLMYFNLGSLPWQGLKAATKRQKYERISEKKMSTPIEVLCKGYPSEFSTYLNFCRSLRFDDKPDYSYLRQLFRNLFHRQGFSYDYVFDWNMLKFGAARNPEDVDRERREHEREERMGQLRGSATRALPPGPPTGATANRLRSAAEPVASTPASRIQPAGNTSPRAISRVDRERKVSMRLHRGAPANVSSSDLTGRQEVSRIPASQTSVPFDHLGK

[16] = target: Casein kinase I isoform epsilon (Homo sapiens) (UniProt P49674); test: Inhibition of human recombinant CK1 epsilon expressed in baculovirus-infected Sf9 cells assessed as enzyme residual activity using RRKHAAIGSpAYSITA as substrate at 1 uM incubated for 30 mins in presence of ATP by ADP-Glo kinase assay
[17] = target: T3, Cyclin-dependent kinase 5/CDK5 activator 1 (Homo sapiens) (UniProt Q00535+Q15078); test: Inhibition of human recombinant CDK5/p25 expressed in bacteria assessed as enzyme residual activity using histone H1 as substrate at 10 uM incubated for 30 mins in presence of ATP by ADP-Glo kinase assay
T3 sequence (Q00535 whole entry): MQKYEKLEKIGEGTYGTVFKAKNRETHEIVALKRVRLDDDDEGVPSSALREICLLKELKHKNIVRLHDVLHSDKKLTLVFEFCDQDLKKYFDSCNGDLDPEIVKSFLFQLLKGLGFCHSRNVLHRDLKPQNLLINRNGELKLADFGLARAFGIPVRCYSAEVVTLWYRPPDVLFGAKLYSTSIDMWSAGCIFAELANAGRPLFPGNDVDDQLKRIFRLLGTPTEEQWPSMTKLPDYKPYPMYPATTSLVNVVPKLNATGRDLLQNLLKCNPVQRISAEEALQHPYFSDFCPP
T3 sequence (Q15078 99-307 partner limits assumed): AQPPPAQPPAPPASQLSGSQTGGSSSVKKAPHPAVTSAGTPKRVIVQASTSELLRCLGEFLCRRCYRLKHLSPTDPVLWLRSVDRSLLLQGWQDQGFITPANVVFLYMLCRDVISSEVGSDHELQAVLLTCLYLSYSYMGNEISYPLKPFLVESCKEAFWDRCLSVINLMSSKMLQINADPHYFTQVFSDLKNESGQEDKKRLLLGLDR

[18] = target: T3, Cyclin-dependent kinase 5/CDK5 activator 1 (Homo sapiens); test: Inhibition of human recombinant CDK5/p25 expressed in bacteria assessed as enzyme residual activity using histone H1 as substrate at 1 uM incubated for 30 mins in presence of ATP by ADP-Glo kinase assay
[19] = target: T4, Serine/threonine-protein kinase pim-1 (Homo sapiens, UniProt P11309); test: Inhibition of human recombinant PIM-1 expressed in bacteria assessed as enzyme residual activity using histone H1 as substrate at 10 uM incubated for 30 mins in presence of ATP by ADP-Glo kinase assay
Target sequence in this assay (P11309 whole entry, looked up): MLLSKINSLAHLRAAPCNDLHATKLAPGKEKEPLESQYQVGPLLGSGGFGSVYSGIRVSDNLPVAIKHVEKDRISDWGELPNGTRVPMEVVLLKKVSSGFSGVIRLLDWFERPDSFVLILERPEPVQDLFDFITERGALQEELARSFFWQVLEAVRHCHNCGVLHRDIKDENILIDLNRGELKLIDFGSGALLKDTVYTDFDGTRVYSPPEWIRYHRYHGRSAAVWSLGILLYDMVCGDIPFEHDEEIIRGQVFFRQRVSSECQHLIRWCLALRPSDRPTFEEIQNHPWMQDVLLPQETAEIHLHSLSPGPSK

[20] = target: T4, Serine/threonine-protein kinase pim-1; test: Inhibition of human recombinant PIM-1 expressed in bacteria assessed as enzyme residual activity using histone H1 as substrate at 1 uM incubated for 30 mins in presence of ATP by ADP-Glo kinase assay
Target sequence in this assay (P11309 whole entry, looked up): as above

[21] = target: T4, Serine/threonine-protein kinase pim-1; test: Inhibition of human recombinant PIM-1 expressed in bacteria using histone H1 as substrate incubated for 30 mins in presence of ATP by ADP-Glo kinase assay
Target sequence in this assay (P11309 whole entry): as the sequence (P11309 whole entry, looked up) above

U2OS [22] = test: Induction of cell cycle arrest in human U2OS cells assessed as proportion of cells at G1 phase at 2.5 uM incubated for 24 hrs by flow cytometry (reference value: 45%); assay type: functional
U2OS [23] = test: Induction of cell cycle arrest in human U2OS cells assessed as proportion of cells at S phase at 2.5 uM incubated for 24 hrs by flow cytometry (reference value: 39%); assay type: functional
U2OS [24] = test: Induction of cell cycle arrest in human U2OS cells assessed as proportion of cells at G2/M phase at 2.5 uM incubated for 24 hrs by flow cytometry (reference value: 16%); assay type: functional
U2OS [25] = test: Induction of cell cycle arrest in human U2OS cells assessed as proportion of cells at G1 phase at 5 uM incubated for 24 hrs by flow cytometry (reference value: 45%); assay type: functional
U2OS [26] = test: Induction of cell cycle arrest in human U2OS cells assessed as proportion of cells at S phase at 5 uM incubated for 24 hrs by flow cytometry (reference value: 39%); assay type: functional
U2OS [27] = test: Induction of cell cycle arrest in human U2OS cells assessed as proportion of cells at G2/M phase at 5 uM incubated for 24 hrs by flow cytometry (reference value: 16%); assay type: functional
TERT-RPE1 = test: cells; details: Homo sapiens, RPE-1, 48 h
Description: Cytotoxicity against human TERT-RPE1 cells assessed as reduction in cell viability incubated for 48 hrs by MTS assay

HBL-100 = test: cells; details: Homo sapiens, HBL-100, 48 h
Description: Antiproliferative activity against human HBL-100 cells assessed as reduction in cell viability incubated for 48 hrs by MTS assay

HCT-116 = test: cells; details: Homo sapiens, HCT-116, 48 h
Description: Antiproliferative activity against human HCT-116 cells assessed as reduction in cell viability incubated for 48 hrs by MTS assay

SH-SY5Y = test: cells; details: Homo sapiens, 48 h
Description: Antiproliferative activity against human SH-SY5Y cells assessed as reduction in cell viability incubated for 48 hrs by MTS assay

U2OS [28] = test: cells; details: Homo sapiens, 48 h
Description: Antiproliferative activity against human U2OS cells assessed as reduction in cell viability incubated for 48 hrs by MTS assay

Row | SMILES | Activity [5] | Activity [6] | Activity [8] | Activity [9] | Activity [11] | Activity [12] | Activity [13] | Activity [14] | Activity [15] | Activity [16] | Activity [17] | Activity [18] | Activity [19] | Activity [20] | Activity (U2OS [22]) | Activity (U2OS [23]) | Activity (U2OS [24]) | Activity (U2OS [25]) | Activity (U2OS [26]) | Activity (U2OS [27]) | also measured
1 | CCCNc1ccc2ncc(-c3ccc4[nH]ncc4c3)n2n1 | – | – | – | – | – | – | – | – | – | – | – | – | – | – | – | – | – | – | – | – | Activity (U2OS [1]): 38%; Activity (U2OS [2]): 44%; Activity (U2OS [3]): 18%
2 | c1cc(-c2c[nH]c3cc4cnccc4cc23)ccn1 | 17% | 46% | 11% | 46% | 38% | 78% | 54% | 92% | 25% | 61% | 10% | 79% | 9% | 49% | 48% | 39% | 13% | 37% | 45% | 18% | pIC50 [4]: 7.12; pIC50 [7]: 6.16; pIC50 [10]: 6.29; pIC50 [21]: 6.32; pEC50 (TERT-RPE1): 5.11; pEC50 (HBL-100): 4.62; pEC50 (HCT-116): 5.14; pEC50 (SH-SY5Y): 4.70; pEC50 (U2OS [28]): 4.95
3 | CCn1ncc2cc3cnccc3c(N)c21 | 8% | 34% | 6% | 23% | 50% | 80% | 42% | 82% | 48% | 84% | 28% | 65% | 60% | 91% | 44% | 40% | 16% | 32% | 43% | 25% | pEC50 (TERT-RPE1): 6.52; pEC50 (HBL-100): 5.14; pEC50 (HCT-116): 5.92; pEC50 (SH-SY5Y): 5.92; pEC50 (U2OS [28]): 5.57
